Like-named read-outs stand apart in the source and are kept apart here.
Experiments:
[1] = target: T1, endogenously expressed GLP-1 receptor, thyroid c-cell carcinoma line 6-23 (Rattus norvegicus, UniProt P32301); assay: GLP-1 cyclase whole cell cAMP assay; format: cell-based
T1 construct: the endogenously expressed GLP-1 receptor; endogenous in cells; host or cells: thyroid c-cell carcinoma line 6-23
T1 sequence (P32301 22-463): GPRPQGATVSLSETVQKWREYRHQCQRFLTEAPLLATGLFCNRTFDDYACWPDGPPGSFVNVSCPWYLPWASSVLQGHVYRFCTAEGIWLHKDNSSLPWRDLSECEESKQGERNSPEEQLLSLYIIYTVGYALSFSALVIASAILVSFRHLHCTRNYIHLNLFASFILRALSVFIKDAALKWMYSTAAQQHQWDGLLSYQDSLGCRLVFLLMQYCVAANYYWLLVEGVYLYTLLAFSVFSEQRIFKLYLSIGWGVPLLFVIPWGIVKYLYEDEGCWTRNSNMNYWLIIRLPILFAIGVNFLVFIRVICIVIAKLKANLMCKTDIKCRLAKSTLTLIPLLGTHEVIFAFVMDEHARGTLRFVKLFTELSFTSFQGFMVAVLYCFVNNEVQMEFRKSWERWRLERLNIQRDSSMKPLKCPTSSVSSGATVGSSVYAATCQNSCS
Procedure: Cells from the thyroid c-cell carcinoma line 6-23 were grown to confluence and harvested by treatment with Versene ([…]). […] Accumulation of cAMP was measured following 30′ conjugate or control agent treatment using an HTRF® cell-based cAMP assay kit (Cisbio-US, Inc., Bedford, Mass.) in 384-well format. The compounds were tested at final concentrations from 1 μM to 10 pM. The cell-conjugate mixture was incubated for 30′ at room temperature, at which time the reaction was terminated by the addition of kit-provided α-cAMP Cryptate solution. Plates were then sealed and stored at room temperature overnight to allow components to come to full equilibrium. cAMP content was then measured by time resolved fluorescence.

[2] = target: T2, ACE from rabbit lung (Oryctolagus cuniculus, UniProt P12822); assay: ACE inhibition assay; format: biochemical
T2 construct: ACE from rabbit lung; purchased Sigma Chemical Co; host or cells: rabbit lung tissue
T2 sequence (P12822 34-1310): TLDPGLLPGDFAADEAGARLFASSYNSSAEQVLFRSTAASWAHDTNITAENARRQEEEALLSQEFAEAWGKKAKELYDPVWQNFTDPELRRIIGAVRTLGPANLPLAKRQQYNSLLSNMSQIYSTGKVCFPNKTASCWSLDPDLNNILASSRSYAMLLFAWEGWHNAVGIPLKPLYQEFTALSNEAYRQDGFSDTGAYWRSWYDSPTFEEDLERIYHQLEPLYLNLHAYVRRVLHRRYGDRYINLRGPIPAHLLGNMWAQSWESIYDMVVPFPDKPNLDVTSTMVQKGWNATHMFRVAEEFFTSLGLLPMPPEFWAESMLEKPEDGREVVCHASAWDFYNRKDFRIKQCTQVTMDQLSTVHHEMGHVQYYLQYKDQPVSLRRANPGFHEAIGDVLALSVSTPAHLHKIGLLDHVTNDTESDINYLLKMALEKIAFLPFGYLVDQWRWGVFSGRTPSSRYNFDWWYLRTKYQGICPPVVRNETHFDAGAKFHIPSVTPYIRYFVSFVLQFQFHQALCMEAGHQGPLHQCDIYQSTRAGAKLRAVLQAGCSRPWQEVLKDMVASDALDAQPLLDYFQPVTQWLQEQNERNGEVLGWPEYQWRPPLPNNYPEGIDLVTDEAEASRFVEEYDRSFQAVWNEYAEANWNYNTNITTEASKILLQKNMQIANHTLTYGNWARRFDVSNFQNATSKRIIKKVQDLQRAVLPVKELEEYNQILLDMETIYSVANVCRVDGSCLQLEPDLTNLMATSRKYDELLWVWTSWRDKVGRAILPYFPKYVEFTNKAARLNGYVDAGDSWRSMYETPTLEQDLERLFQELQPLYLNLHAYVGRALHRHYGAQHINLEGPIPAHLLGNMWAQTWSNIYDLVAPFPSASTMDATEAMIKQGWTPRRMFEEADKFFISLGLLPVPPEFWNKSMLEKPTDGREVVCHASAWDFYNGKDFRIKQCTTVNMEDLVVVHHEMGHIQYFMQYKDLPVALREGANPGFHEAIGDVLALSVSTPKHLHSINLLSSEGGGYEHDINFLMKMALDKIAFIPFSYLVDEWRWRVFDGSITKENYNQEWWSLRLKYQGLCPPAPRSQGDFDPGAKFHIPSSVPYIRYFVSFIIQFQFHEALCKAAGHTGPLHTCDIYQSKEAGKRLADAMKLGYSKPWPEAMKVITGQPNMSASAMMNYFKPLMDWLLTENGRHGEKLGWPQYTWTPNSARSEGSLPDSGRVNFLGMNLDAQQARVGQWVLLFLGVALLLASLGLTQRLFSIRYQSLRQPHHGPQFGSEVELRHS
Procedure: Peptide-ACE peptidase inhibitor conjugate compounds were assessed in an ACE inhibition assay using purified ACE enzyme and chromogenic substrates. An ACE stock solution was prepared by dissolving 0.1 unit of enzyme (ACE from rabbit lung, Sigma Chemical Co., St. Louis, Mo.) in 0.640 mL of HEPES buffer (0.1 M, pH=8). A 2 mM stock solution of substrate (N-benzyloxycarbonyl-Phe-His-Leu-OH) dissolved in methanol. The ACE inhibitor compounds were dissolved in phosphate buffer (0.1 M, pH=8) at concentrations of 0.0, 1, 10, 20, 60 and 100 μM. For the inhibition assay, six 2 mL microcentrifuge tubes were prepared containing 1.45 mL of phosphate buffer pH=8, 0.05 mL of 10% NaCl and 0.015 mL of substrate solution. To each microcentrifuge tube was added 0.015 mL of one of the ACE inhibitor compound's stock solutions. The solutions were heated at 37° C. for about 5 minutes. The reaction was started by the addition of 5 μL of the ACE stock solution to each tube mixture (30 seconds in between). The reaction mixtures were incubated at 37° C. After 5 min, 10 min, 30 min and 60 min., aliquots of 100 μL were taken from each tube (each sample was taken in intervals of 30 seconds). Tubes containing the 100 μL sample were floated in a boiling water bath for 5 min. and then cooled. The reaction samples were then treated with 20 μL of 2M NaOH and 20 μL of 0.1% phthaldialdehyde solution. The tubes were shaken for 4 minutes and 10 μL of 6 M HCl were added. […] Initial rates were determined from linear portions of product release curves. Starting substrate concentration in all assays was 20 μM. Apparent binding constants (Kd^app or Ki^app) of inhibitors to ACE were determined by fitting inhibition curves (initial rate vs. inhibitor concentration) to equation:
[formula] where v0 is reaction rate in the absence of inhibitor and [I]-inhibitor concentration. Fits were done by least-squares method using KaleidaGraph 3.6 (Synergy Software, Reading Pa.).

[3] = substrate N-benzyloxycarbonyl-Phe-His-Leu-OH 20 μM, read-out: ACE inhibition IC50

Compound | EC50 [1] [nM] | IC50 [2, 3] [nM] | IC50 [2] [nM]
CC[C@H](C)[C@H](NC(=O)[C@H](Cc1ccccc1)NC(=O)[C@H](CC(C)C)NC(=O)[C@H](CCCNC(=N)N)NC(=O)[C@@H](NC(=O)[C@H](C)NC(=O)[C@H](CCC(=O)O)NC(=O)[C@H](CCC(=O)O)NC(=O)[C@H](CCC(=O)O)NC(=O)[C@H](CC(C)C)NC(=O)[C@H](CCC(N)=O)NC(=O)[C@H](CCCCN)NC(=O)[C@H](CO)NC(=O)[C@H](CC(C)C)NC(=O)[C@H](CC(=O)O)NC(=O)[C@H](CO)NC(=O)[C@@H](NC(=O)[C@H](Cc1ccccc1)NC(=O)[C@@H](NC(=O)CNC(=O)[C@H](CCC(=O)O)NC(=O)CNC(=O)[C@@H](N)Cc1c[nH]cn1)[C@@H](C)O)[C@@H](C)O)C(C)C)C(=O)N[C@@H](CCC(=O)O)C(=O)N[C@@H](Cc1c[nH]c2ccccc12)C(=O)N[C@@H](CC(C)C)C(=O)N[C@@H](CCCCN)C(=O)N[C@@H](CC(N)=O)C(=O)NCCCC(=O)NCCOCCOCC(=O)NCCCC(=O)NCCCC[C@H](NC(CCc1ccccc1)C(=O)O)C(=O)N1CCC[C@H]1C(=O)O (some centres unmarked) [Compound 5605] | 1.24 | 300 | 
CC[C@H](C)[C@H](NC(=O)[C@H](Cc1ccccc1)NC(=O)[C@H](CC(C)C)NC(=O)[C@H](CCCNC(=N)N)NC(=O)[C@@H](NC(=O)[C@H](C)NC(=O)[C@H](CCC(=O)O)NC(=O)[C@H](CCC(=O)O)NC(=O)[C@H](CCC(=O)O)NC(=O)[C@H](CC(C)C)NC(=O)[C@H](CCC(N)=O)NC(=O)[C@H](CCCCN)NC(=O)[C@H](CO)NC(=O)[C@H](CC(C)C)NC(=O)[C@H](CC(=O)O)NC(=O)[C@H](CO)NC(=O)[C@@H](NC(=O)[C@H](Cc1ccccc1)NC(=O)[C@@H](NC(=O)CNC(=O)[C@H](CCC(=O)O)NC(=O)CNC(=O)[C@@H](N)Cc1c[nH]cn1)[C@@H](C)O)[C@@H](C)O)C(C)C)C(=O)N[C@@H](CCC(=O)O)C(=O)N[C@@H](Cc1c[nH]c2ccccc12)C(=O)N[C@@H](CC(C)C)C(=O)N[C@@H](CCCCN)C(=O)N[C@@H](CC(N)=O)C(=O)NCCOCCOCCOCC(=O)NCCOCCOCC(=O)NCCCC[C@H](NC(CCc1ccccc1)C(=O)O)C(=O)N1CCC[C@H]1C(=O)O (some centres unmarked) [Compound 5606] | 0.23 | 700 | 
CC[C@H](C)[C@H](NC(=O)[C@H](Cc1ccccc1)NC(=O)[C@H](CC(C)C)NC(=O)[C@H](CCCNC(=N)N)NC(=O)[C@@H](NC(=O)[C@H](C)NC(=O)[C@H](CCC(=O)O)NC(=O)[C@H](CCC(=O)O)NC(=O)[C@H](CCC(=O)O)NC(=O)[C@H](CC(C)C)NC(=O)[C@H](CCC(N)=O)NC(=O)[C@H](CCCCN)NC(=O)[C@H](CO)NC(=O)[C@H](CC(C)C)NC(=O)[C@H](CC(=O)O)NC(=O)[C@H](CO)NC(=O)[C@@H](NC(=O)[C@H](Cc1ccccc1)NC(=O)[C@@H](NC(=O)CNC(=O)[C@H](CCC(=O)O)NC(=O)CNC(=O)[C@@H](N)Cc1c[nH]cn1)[C@@H](C)O)[C@@H](C)O)C(C)C)C(=O)N[C@@H](CCC(=O)O)C(=O)N[C@@H](Cc1c[nH]c2ccccc12)C(=O)N[C@@H](CC(C)C)C(=O)N[C@@H](CCCCN)C(=O)N[C@@H](CC(N)=O)C(=O)NCCOCCOCCOCC(=O)NCCCC(=O)NCCCC[C@H](NC(CCc1ccccc1)C(=O)O)C(=O)N1CCC[C@H]1C(=O)O (some centres unmarked) [Compound 5609] | 0.65 | 1000 | 
CC[C@H](C)[C@H](NC(=O)[C@H](Cc1ccccc1)NC(=O)[C@H](CC(C)C)NC(=O)[C@H](CCCNC(=N)N)NC(=O)[C@@H](NC(=O)[C@H](C)NC(=O)[C@H](CCC(=O)O)NC(=O)[C@H](CCC(=O)O)NC(=O)[C@H](CCC(=O)O)NC(=O)[C@H](CC(C)C)NC(=O)[C@H](CCC(N)=O)NC(=O)[C@H](CCCCN)NC(=O)[C@H](CO)NC(=O)[C@H](CC(C)C)NC(=O)[C@H](CC(=O)O)NC(=O)[C@H](CO)NC(=O)[C@@H](NC(=O)[C@H](Cc1ccccc1)NC(=O)[C@@H](NC(=O)CNC(=O)[C@H](CCC(=O)O)NC(=O)CNC(=O)[C@@H](N)Cc1c[nH]cn1)[C@@H](C)O)[C@@H](C)O)C(C)C)C(=O)N[C@@H](CCC(=O)O)C(=O)N[C@@H](Cc1c[nH]c2ccccc12)C(=O)N[C@@H](CC(C)C)C(=O)N[C@@H](CCCCN)C(=O)N[C@@H](CCC(N)=O)C(=O)NCC(=O)NCC(=O)N1CCC[C@H]1C(=O)N[C@@H](CO)C(=O)N[C@@H](CCCCN)C(=O)N[C@@H](CCC(=O)O)C(=O)N[C@H](C(=O)N[C@H](C(=O)N[C@@H](CO)C(=O)NCCCC(=O)NCCC(=O)NCCCC[C@H](NC(CCc1ccccc1)C(=O)O)C(=O)N1CCC[C@H]1C(=O)O)[C@@H](C)CC)[C@@H](C)CC (some centres unmarked) [Compound 5716] | 0.14 |  | 140

From patent US8598314B2 (priority 2007, dated 2013)
